Assay: Single dose PK in healthy subjects (Cohorts 1, 2, S1 and S2), plasma
Assay type: in vivo, human
Method: This study investigates (i) the safety and tolerability of Compound A (methyl (2R,3S)-3-((methylsulfonyl)amino)-2-(((cis-4-phenylcyclohexyl)oxy)methyl)piperidine-1-carboxylate) when a single dose given as a 9 hour continuous IV infusion is administered to healthy adults, healthy elderly subjects and patients with narcolepsy type 1 (NT1); (ii) the pharmacokinetics of Compound A when a single dose given as a 9 hour continuous IV infusion is administered to healthy adults, healthy elderly subjects and patients with narcolepsy type 1; and (iii) the pharmacodynamics (PD) effects of Compound A, primarily by evaluation of the sleep latency on MWT when a single dose given as a 9 hour continuous IV infusion is administered to patients with narcolepsy type 1.
Pharmacokinetics: Concentrations of Compound A in plasma, and CSF, and pharmacokinetics parameters.
On average, the time to reach the plateau appeared to be approximately 3 to 4 hours after the start of infusion. […] After switching off the IV infusion, Compound A plasma concentrations declined rapidly and in a biphasic manner with a mean terminal disposition phase t1/2z ranging approximately from 3.4 to 5.1 hours across all doses. […] Table 5 provides a summary of plasma concentrations of Compound A after a single IV infusion in healthy subjects. Table 6 provides a summary of pharmacokinetic parameters of Compound A after a single IV infusion in healthy subjects.

[1] = 7 mg single IV infusion, healthy subjects
[2] = 7 mg, 0.17 hr After End of Infusion
[3] = 14 mg single IV infusion, healthy subjects
[4] = 28 mg single IV infusion, healthy subjects
[5] = 28 mg, 0.17 hr After End of Infusion
[6] = 28 mg, 0.33 hr After End of Infusion
[7] = 28 mg, 0.5 hr After End of Infusion
[8] = 28 mg, 0.75 hr After End of Infusion
[9] = 28 mg, 1 hr After End of Infusion
[10] = 28 mg, 1.5 hr After End of Infusion
[11] = 28 mg, 2 hr After End of Infusion
[12] = 56 mg single IV infusion, healthy subjects
[13] = 56 mg, 0.17 hr After End of Infusion
[14] = 56 mg, 0.33 hr After End of Infusion
[15] = 56 mg, 0.5 hr After End of Infusion
[16] = 56 mg, 0.75 hr After End of Infusion
[17] = 56 mg, 1 hr After End of Infusion
[18] = 56 mg, 1.5 hr After End of Infusion

COC(=O)N1CCC[C@H](NS(C)(=O)=O)[C@@H]1CO[C@H]1CC[C@@H](c2ccccc2)CC1 [Compound A, methyl (2R,3S)-3-((methylsulfonyl)amino)-2-(((cis-4-phenylcyclohexyl)oxy)methyl)piperidine-1-carboxylate]
AUCinf D Mean [1]: 20.48 ng·h/mL/mg | AUCinf D Median [1]: 20.80 ng·h/mL/mg | CL Median [1]: 48.10 L/h | Cmax D Mean [1]: 2.416 ng/mL/mg | Cmax D Median [1]: 2.360 ng/mL/mg | Vss Median [1]: 100.0 L | t½z Mean [1]: 4.120 h | t½z Median [1]: 3.220 h | Plasma concentration, Mean [2]: 9.360 ng/mL | Plasma concentration, Minimum [2]: 7.91 ng/mL | Plasma concentration, Q1 [2]: 9.090 ng/mL | Plasma concentration, Mean (7 mg, Predose): 0.000 ng/mL | Plasma concentration, Minimum (7 mg, Predose): 0.00 ng/mL | Plasma concentration, Q1 (7 mg, Predose): 0.000 ng/mL | AUCinf D Mean [3]: 23.70 ng·h/mL/mg | AUCinf D Median [3]: 23.05 ng·h/mL/mg | Cmax D Mean [3]: 2.647 ng/mL/mg | Cmax D Median [3]: 2.640 ng/mL/mg | t½z Mean [3]: 4.498 h | t½z Median [3]: 4.170 h | AUCinf D Mean [4]: 18.90 ng·h/mL/mg | AUCinf D Median [4]: 19.60 ng·h/mL/mg | Cmax D Mean [4]: 2.076 ng/mL/mg | Cmax D Median [4]: 2.120 ng/mL/mg | t½z Mean [4]: 5.142 h | t½z Median [4]: 5.060 h | Plasma concentration, Maximum [5]: 34.9 ng/mL | Plasma concentration, Mean [5]: 32.52 ng/mL | Plasma concentration, Median [5]: 32.80 ng/mL | Plasma concentration, Minimum [5]: 28.2 ng/mL | Plasma concentration, Q1 [5]: 32.70 ng/mL | Plasma concentration, Q3 [5]: 34.00 ng/mL | Plasma concentration, Maximum [6]: 32.2 ng/mL | Plasma concentration, Mean [6]: 28.04 ng/mL | Plasma concentration, Median [6]: 27.20 ng/mL | Plasma concentration, Minimum [6]: 25.4 ng/mL | Plasma concentration, Q1 [6]: 26.70 ng/mL | Plasma concentration, Q3 [6]: 28.70 ng/mL | Plasma concentration, Maximum [7]: 33.7 ng/mL | Plasma concentration, Mean [7]: 25.36 ng/mL | Plasma concentration, Median [7]: 24.20 ng/mL | Plasma concentration, Minimum [7]: 20.9 ng/mL | Plasma concentration, Q1 [7]: 21.30 ng/mL | Plasma concentration, Q3 [7]: 26.70 ng/mL | Plasma concentration, Maximum [8]: 23.9 ng/mL | Plasma concentration, Mean [8]: 20.82 ng/mL | Plasma concentration, Median [8]: 19.50 ng/mL | Plasma concentration, Minimum [8]: 19.0 ng/mL | Plasma concentration, Q1 [8]: 19.10 ng/mL | Plasma concentration, Q3 [8]: 22.60 ng/mL | Plasma concentration, Maximum [9]: 21.4 ng/mL | Plasma concentration, Mean [9]: 18.56 ng/mL | Plasma concentration, Median [9]: 18.00 ng/mL | Plasma concentration, Minimum [9]: 15.6 ng/mL | Plasma concentration, Q1 [9]: 17.80 ng/mL | Plasma concentration, Q3 [9]: 20.00 ng/mL | Plasma concentration, Maximum [10]: 18.9 ng/mL | Plasma concentration, Mean [10]: 16.70 ng/mL | Plasma concentration, Median [10]: 18.00 ng/mL | Plasma concentration, Minimum [10]: 13.6 ng/mL | Plasma concentration, Q1 [10]: 14.90 ng/mL | Plasma concentration, Q3 [10]: 18.10 ng/mL | Plasma concentration, Maximum [11]: 13.4 ng/mL | Plasma concentration, Mean [11]: 10.53 ng/mL | Plasma concentration, Median [11]: 9.600 ng/mL | Plasma concentration, Minimum [11]: 8.06 ng/mL | Plasma concentration, Q1 [11]: 8.990 ng/mL | Plasma concentration, Q3 [11]: 12.60 ng/mL | AUCinf D Mean [12]: 19.27 ng·h/mL/mg | AUCinf D Median [12]: 18.75 ng·h/mL/mg | Cmax D Mean [12]: 2.200 ng/mL/mg | Cmax D Median [12]: 2.170 ng/mL/mg | t½z Mean [12]: 3.860 h | t½z Median [12]: 3.760 h | Plasma concentration, Maximum [13]: 79.9 ng/mL | Plasma concentration, Mean [13]: 63.58 ng/mL | Plasma concentration, Median [13]: 62.50 ng/mL | Plasma concentration, Minimum [13]: 54.5 ng/mL | Plasma concentration, Q1 [13]: 55.60 ng/mL | Plasma concentration, Q3 [13]: 66.50 ng/mL | Plasma concentration, Mean [14]: 54.37 ng/mL | Plasma concentration, Median [14]: 53.25 ng/mL | Plasma concentration, Minimum [14]: 44.7 ng/mL | Plasma concentration, Q1 [14]: 45.00 ng/mL | Plasma concentration, Mean [15]: 50.33 ng/mL | Plasma concentration, Median [15]: 50.10 ng/mL | Plasma concentration, Minimum [15]: 38.4 ng/mL | Plasma concentration, Q1 [15]: 40.90 ng/mL | Plasma concentration, Mean [16]: 45.77 ng/mL | Plasma concentration, Median [16]: 47.20 ng/mL | Plasma concentration, Minimum [16]: 33.3 ng/mL | Plasma concentration, Q1 [16]: 36.90 ng/mL | Plasma concentration, Mean [17]: 41.83 ng/mL | Plasma concentration, Median [17]: 39.80 ng/mL | Plasma concentration, Minimum [17]: 30.1 ng/mL | Plasma concentration, Q1 [17]: 34.80 ng/mL | Plasma concentration, Mean [18]: 33.63 ng/mL | Plasma concentration, Median [18]: 31.35 ng/mL | Plasma concentration, Minimum [18]: 27.4 ng/mL | Plasma concentration, Q1 [18]: 28.40 ng/mL

Reference: patent publication US20220339143A1, “TAK-925 FOR USE IN TREATING NARCOLEPSY” (Takeda Pharmaceutical Company Limited, priority 2019, published 2022)
